# Source: patent US20100197584A1, “USE OF CURCUMIN TO BLOCK BRAIN TUMOR FORMATION IN MICE” (Research Foundations of the City University of- New York, priority 2007, published 2010)
# System: normal (non-tumor) brain cells
# Test: Normal brain cell viability (MTT on brain sections)
# Format: in vivo
# Conditions: brain sections of untreated mice treated with 1 mM in PBS for one hour; positive control for cell death (FIG. 10)
# Procedure: In each experiment, three mice were injected with 200 μl of PBS containing 3% DMSO, and three mice were injected with 200 μl of 667 μM curcumin (as described earlier) through the tail vein on three consecutive days by the method described above. On the fourth day, the mice were perfused with PBS through the heart, and the brains sectioned into 400-μm sections. Similar brain sections were also made from untreated mice which were then treated with 1 mM H2O2 in PBS for one hour, followed by incubation in H2O2-free DTM for three hours. These samples were used as a positive control for cell death.
# The sections from each mouse were placed in 400 μl PBS in one well of a 48-well plate (i.e. three wells for three mice) and then treated with 200 μl of MTT (5 mg/ml) per well with gentle mixing at 37° C. for about 2 hours. Subsequently, 800 μl of the lysis buffer was added to each well, and the plate was sealed and incubated overnight at 37° C. with gentle mixing. Three 100-μl portions of the tissue solution obtained were next transferred to three respective wells of a 96-well plate (i.e. three wells per mouse and nine wells for three mice in one group) and absorbance at 570 nm was measured using a 96-well multi scanner auto-reader. Results obtained were normalized to protein levels and then expressed as percent of carrier-treated samples.
smiles,measurement,value
"OO [H2O2, reference compound]",cell viability in brain slices (MTT activity),dramatic decrease
